# According to patent publication US9156801B2, “2-substituted oleanolic acid derivative, method preparing for same, and application thereof” (HANGZHOU BENSHENG PHARMACEUTICAL CO., LTD., priority 2011, dated 2015):
# Legend:
# H9 cell line = assay: leukemia cell growth inhibition, MTT; assay type: cell-based; conditions: Homo sapiens; for IC50: H9, 72 h; for inhibition at 16 µg/mL: H9, 16 μg/mL compound, 72 h, read-out: IR (cell proliferation inhibition rate)
# Outline: (§1)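 6000 cells per well in RPMI 1640 with 10% FBS were exposed to graded concentrations of the oleanolic acid derivatives for 72 hours at 37° C under 5% CO2. Viable cells were quantified by MTT, with untreated cells defining 0% inhibition.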
# Jurkat cell line = assay: leukemia cell growth inhibition, MTT; assay type: cell-based; conditions: Homo sapiens, 72 h; for inhibition at 16 µg/mL: 16 μg/mL compound, read-out: IR (cell proliferation inhibition rate)
# Outline: as §1
# K562/adr cell line = assay: leukemia cell growth inhibition, MTT; assay type: cell-based; conditions: Homo sapiens, 72 h; for IC50: K562/Adr; for inhibition at 16 µg/mL: K562/adr, 16 μg/mL compound, read-out: IR (cell proliferation inhibition rate)
# Outline: as §1
# Kasumi-1 cell line = assay: leukemia cell growth inhibition, MTT; assay type: cell-based; conditions: Homo sapiens; for inhibition at 16 µg/mL: Kasumi-1, 16 μg/mL compound, 72 h, read-out: IR (cell proliferation inhibition rate); for IC50: Kasumi-1, 72 h
# Outline: as §1
# NB4 cell line = assay: leukemia cell growth inhibition, MTT; assay type: cell-based; conditions: Homo sapiens, NB-4; for inhibition at 16 µg/mL: NB4, 16 μg/mL compound, 72 h, read-out: IR (cell proliferation inhibition rate); for IC50: NB4, 72 h
# Outline: as §1
# RPMI8226 cell line = assay: multiple myeloma cell growth inhibition, MTT; assay type: cell-based; conditions: Homo sapiens, RPMI-8226; for inhibition at 16 µg/mL: RPMI8226, 16 μg/mL compound, 72 h, read-out: IR (cell proliferation inhibition rate); for IC50: RPMI8226, 72 h
# Outline: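 RPMI8226 cells (6000 per well) in RPMI 1640 with 10% FBS were exposed to several concentrations of compound for 72 h at 37° C and 5% CO2. Viable cells were quantified by MTT, with inhibition set to 0% in untreated controls.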
# Hep G2 cell line = assay: solid tumor cell growth inhibition, MTT; assay type: cell-based, human; conditions: for inhibition at 16 µg/mL / IC50: Homo sapiens; for inhibition at 16 µg/mL: HepG2, 72 h, Hep G2, 16 μg/mL compound, 72 h, read-out: IR (cell proliferation inhibition rate); for IC50: HepG2, Hep G2, 72 h
# Outline: (§2)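 Cells (4000/well) in DMEM high glucose with 10% FBS were pre-cultured 24 h at 37° C, 5% CO2, then exposed to graded compound concentrations for 72 h. Viable cells were measured by MTT, with untreated controls set at 0% inhibition.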
# A549 cell line = assay: solid tumor cell growth inhibition, MTT; assay type: cell-based; conditions: Homo sapiens; for IC50: A549, 72 h; for inhibition at 16 µg/mL: A549, 16 μg/mL compound, 72 h, read-out: IR (cell proliferation inhibition rate)
# Outline: as §2
# Becap37 cell line = assay: solid tumor cell growth inhibition, MTT; assay type: cell-based; conditions: Homo sapiens; for inhibition at 16 µg/mL: Becap37, 16 μg/mL compound, 72 h, read-out: IR (cell proliferation inhibition rate); for IC50: Becap37, 72 h
# Outline: as §2
# CNE cell line = assay: solid tumor cell growth inhibition, MTT; assay type: cell-based; conditions: Homo sapiens, 72 h; for inhibition at 16 µg/mL: 16 μg/mL compound, read-out: IR (cell proliferation inhibition rate)
# Outline: as §2
# CaES-17 cell line = assay: solid tumor cell growth inhibition, MTT; assay type: cell-based; conditions: Homo sapiens, CaEs17; for inhibition at 16 µg/mL: CaES-17, 16 μg/mL compound, 72 h, read-out: IR (cell proliferation inhibition rate); for IC50: CaES-17, 72 h
# Outline: as §2
# Hela cell line = assay: solid tumor cell growth inhibition, MTT; assay type: cell-based; conditions: Homo sapiens, 72 h; for IC50: HeLa; for inhibition at 16 µg/mL: Hela, 16 μg/mL compound, read-out: IR (cell proliferation inhibition rate)
# Outline: as §2
# Hep-2 cell line = assay: solid tumor cell growth inhibition, MTT; assay type: cell-based; conditions: Homo sapiens; for IC50: HEp-2, 72 h; for inhibition at 16 µg/mL: Hep-2, 16 μg/mL compound, 72 h, read-out: IR (cell proliferation inhibition rate)
# Outline: as §2
# MG-63 cell line = assay: solid tumor cell growth inhibition, MTT; assay type: cell-based; conditions: Homo sapiens; for IC50: MG-63, 72 h; for inhibition at 16 µg/mL: MG-63, 16 μg/mL compound, 72 h, read-out: IR (cell proliferation inhibition rate)
# Outline: as §2
# MGC 803 cell line = assay: solid tumor cell growth inhibition, MTT; assay type: cell-based; conditions: Homo sapiens; for inhibition at 16 µg/mL: MGC 803, 16 μg/mL compound, 72 h, read-out: IR (cell proliferation inhibition rate); for IC50: MGC 803, 72 h
# Outline: as §2
# PANC-1 cell line = assay: solid tumor cell growth inhibition, MTT; assay type: cell-based; conditions: Homo sapiens; for IC50: PANC-1, 72 h; for inhibition at 16 µg/mL: PANC-1, 16 μg/mL compound, 72 h, read-out: IR (cell proliferation inhibition rate)
# Outline: as §2
# PC-3 cell line = assay: solid tumor cell growth inhibition, MTT; assay type: cell-based; conditions: Homo sapiens; for IC50: PC-3, 72 h; for inhibition at 16 µg/mL: PC-3, 16 μg/mL compound, 72 h, read-out: IR (cell proliferation inhibition rate)
# Outline: as §2
# RKO cell line = assay: solid tumor cell growth inhibition, MTT; assay type: cell-based; conditions: Homo sapiens, 72 h; for inhibition at 16 µg/mL: 16 μg/mL compound, read-out: IR (cell proliferation inhibition rate)
# Outline: as §2
# SK-OV-3 cell line = assay: solid tumor cell growth inhibition, MTT; assay type: cell-based; conditions: Homo sapiens; for IC50: SK-OV-3, 72 h; for inhibition at 16 µg/mL: SK-OV-3, 16 μg/mL compound, 72 h, read-out: IR (cell proliferation inhibition rate)
# Outline: as §2
# U87 MG cell line = assay: solid tumor cell growth inhibition, MTT; assay type: cell-based; conditions: Homo sapiens, U-87 MG, 72 h; for inhibition at 16 µg/mL: 16 μg/mL compound, read-out: IR (cell proliferation inhibition rate)
# Outline: as §2
smiles,measurement,setting,value
"CC1(C)CC[C@]2(C(=O)O)CC[C@]3(C)C(=CC[C@@H]4[C@@]5(C)CC[C@H](O)C(C)(C)[C@@H]5CC[C@]43C)[C@@H]2C1 [OA, Oleanolic acid]",IC50,H9 cell line,> 16 µg/mL
same,inhibition at 16 µg/mL,H9 cell line,22.8%
same,inhibition at 16 µg/mL,Jurkat cell line,9.4%
same,IC50,Jurkat cell line,> 16 µg/mL
same,IC50,K562/adr cell line,> 16 µg/mL
same,inhibition at 16 µg/mL,K562/adr cell line,26.5%
same,inhibition at 16 µg/mL,Kasumi-1 cell line,17.2%
same,IC50,Kasumi-1 cell line,> 16 µg/mL
same,inhibition at 16 µg/mL,NB4 cell line,17.2%
same,IC50,NB4 cell line,> 16 µg/mL
same,inhibition at 16 µg/mL,RPMI8226 cell line,2.2%
same,IC50,RPMI8226 cell line,> 16 µg/mL
same,proliferation inhibition effect (in words),Hep G2 cell line; Hep G2,does not exhibit obvious proliferation inhibition effect
same,inhibition at 16 µg/mL,Hep G2 cell line,-18.5%
same,IC50,Hep G2 cell line,> 16 µg/mL
same,IC50,A549 cell line,> 16 µg/mL
same,inhibition at 16 µg/mL,A549 cell line,5%
same,inhibition at 16 µg/mL,Becap37 cell line,23.4%
same,IC50,Becap37 cell line,> 16 µg/mL
same,inhibition at 16 µg/mL,CNE cell line,33.9%
same,IC50,CNE cell line,> 16 µg/mL
same,inhibition at 16 µg/mL,CaES-17 cell line,27.4%
same,IC50,CaES-17 cell line,> 16 µg/mL
same,IC50,Hela cell line,> 16 µg/mL
same,inhibition at 16 µg/mL,Hela cell line,22.9%
same,IC50,Hep-2 cell line,> 16 µg/mL
same,inhibition at 16 µg/mL,Hep-2 cell line,9.8%
same,IC50,MG-63 cell line,> 16 µg/mL
same,inhibition at 16 µg/mL,MG-63 cell line,29.2%
same,inhibition at 16 µg/mL,MGC 803 cell line,19.7%
same,IC50,MGC 803 cell line,> 16 µg/mL
same,IC50,PANC-1 cell line,> 16 µg/mL
same,inhibition at 16 µg/mL,PANC-1 cell line,8.5%
same,IC50,PC-3 cell line,> 16 µg/mL
same,inhibition at 16 µg/mL,PC-3 cell line,29.1%
same,inhibition at 16 µg/mL,RKO cell line,14.3%
same,IC50,RKO cell line,> 16 µg/mL
same,IC50,SK-OV-3 cell line,> 16 µg/mL
same,inhibition at 16 µg/mL,SK-OV-3 cell line,8.3%
same,inhibition at 16 µg/mL,U87 MG cell line,21.8%
same,IC50,U87 MG cell line,> 16 µg/mL
COCCCNC(=O)C1C[C@]2(C)[C@H]3CC=C4[C@@H]5CC(C)(C)CC[C@]5(C(=O)OC)CC[C@@]4(C)[C@]3(C)CC[C@H]2C(C)(C)C1=O (stereo partly shown) [BS-OA-052],IC50,H9 cell line,> 16 µg/mL
same,inhibition at 16 µg/mL,H9 cell line,38%
same,inhibition at 16 µg/mL,Jurkat cell line,-5%
same,IC50,Jurkat cell line,> 16 µg/mL
same,IC50,K562/adr cell line,12.3 µg/mL
same,inhibition at 16 µg/mL,K562/adr cell line,64%
same,inhibition at 16 µg/mL,Kasumi-1 cell line,19%
same,IC50,Kasumi-1 cell line,> 16 µg/mL
same,inhibition at 16 µg/mL,NB4 cell line,46.7%
same,IC50,NB4 cell line,16 µg/mL
same,inhibition at 16 µg/mL,RPMI8226 cell line,25.2%
same,IC50,RPMI8226 cell line,> 16 µg/mL
same,inhibition at 16 µg/mL,Hep G2 cell line,10%
same,IC50,Hep G2 cell line,> 16 µg/mL
same,IC50,A549 cell line,> 16 µg/mL
same,inhibition at 16 µg/mL,A549 cell line,3.1%
same,inhibition at 16 µg/mL,Becap37 cell line,-12%
same,IC50,Becap37 cell line,> 16 µg/mL
same,inhibition at 16 µg/mL,CNE cell line,9.9%
same,IC50,CNE cell line,> 16 µg/mL
same,inhibition at 16 µg/mL,CaES-17 cell line,-8%
same,IC50,CaES-17 cell line,> 16 µg/mL
same,IC50,Hela cell line,> 16 µg/mL
same,inhibition at 16 µg/mL,Hela cell line,25.6%
same,IC50,Hep-2 cell line,> 16 µg/mL
same,inhibition at 16 µg/mL,Hep-2 cell line,-11.3%
same,IC50,MG-63 cell line,> 16 µg/mL
same,inhibition at 16 µg/mL,MG-63 cell line,-33.5%
same,inhibition at 16 µg/mL,MGC 803 cell line,-12.7%
same,IC50,MGC 803 cell line,> 16 µg/mL
same,IC50,PANC-1 cell line,> 16 µg/mL
same,inhibition at 16 µg/mL,PANC-1 cell line,8.4%
same,IC50,PC-3 cell line,> 16 µg/mL
same,inhibition at 16 µg/mL,PC-3 cell line,25.4%
same,inhibition at 16 µg/mL,RKO cell line,-48.6%
same,IC50,RKO cell line,> 16 µg/mL
same,IC50,SK-OV-3 cell line,> 16 µg/mL
same,inhibition at 16 µg/mL,SK-OV-3 cell line,29.5%
same,inhibition at 16 µg/mL,U87 MG cell line,10.9%
same,IC50,U87 MG cell line,> 16 µg/mL
COC(=O)[C@]12CCC(C)(C)CC1C1=CCC3[C@@]4(C)CC(C(=O)NCCc5ccccn5)C(=O)C(C)(C)C4CC[C@@]3(C)[C@]1(C)CC2 (stereo partly shown) [BS-OA-032],IC50,H9 cell line,13.6 µg/mL
same,inhibition at 16 µg/mL,H9 cell line,62.3%
same,inhibition at 16 µg/mL,Jurkat cell line,75.4%
same,IC50,Jurkat cell line,10.8 µg/mL
same,IC50,K562/adr cell line,12.9 µg/mL
same,inhibition at 16 µg/mL,K562/adr cell line,63.7%
same,inhibition at 16 µg/mL,Kasumi-1 cell line,48.6%
same,IC50,Kasumi-1 cell line,16 µg/mL
same,inhibition at 16 µg/mL,NB4 cell line,85.2%
same,IC50,NB4 cell line,9.82 µg/mL
same,inhibition at 16 µg/mL,RPMI8226 cell line,30.3%
same,IC50,RPMI8226 cell line,> 16 µg/mL
same,inhibition at 16 µg/mL,Hep G2 cell line,23.7%
same,IC50,Hep G2 cell line,> 16 µg/mL
same,IC50,A549 cell line,> 16 µg/mL
same,inhibition at 16 µg/mL,A549 cell line,-6.6%
same,inhibition at 16 µg/mL,Becap37 cell line,4.1%
same,IC50,Becap37 cell line,> 16 µg/mL
same,inhibition at 16 µg/mL,CNE cell line,23.6%
same,IC50,CNE cell line,> 16 µg/mL
same,inhibition at 16 µg/mL,CaES-17 cell line,22%
same,IC50,CaES-17 cell line,> 16 µg/mL
same,IC50,Hela cell line,15.8 µg/mL
same,inhibition at 16 µg/mL,Hela cell line,57%
same,IC50,Hep-2 cell line,> 16 µg/mL
same,inhibition at 16 µg/mL,Hep-2 cell line,5.2%
same,IC50,MG-63 cell line,> 16 µg/mL
same,inhibition at 16 µg/mL,MG-63 cell line,4.7%
same,inhibition at 16 µg/mL,MGC 803 cell line,14.1%
same,IC50,MGC 803 cell line,> 16 µg/mL
same,IC50,PANC-1 cell line,> 16 µg/mL
same,inhibition at 16 µg/mL,PANC-1 cell line,14.5%
same,IC50,PC-3 cell line,> 16 µg/mL
same,inhibition at 16 µg/mL,PC-3 cell line,32.5%
same,inhibition at 16 µg/mL,RKO cell line,-5.3%
same,IC50,RKO cell line,> 16 µg/mL
same,IC50,SK-OV-3 cell line,> 16 µg/mL
same,inhibition at 16 µg/mL,SK-OV-3 cell line,26.3%
same,inhibition at 16 µg/mL,U87 MG cell line,30.4%
same,IC50,U87 MG cell line,> 16 µg/mL
